Data on ten molecules can be found in patent publication US20140005163A1 (NOVARTIS AG, priority 2010, published 2014).

One may read the solubility as the dissolved amount per volume that the medium holds. One may read the IC50 as the midpoint of a concentration-inhibition curve.

Converted amounts (≈) assume the structure as drawn. Where only a bound is given, the exact number is not on record here.

The nature of one data set: Solubility at pH 6.8. Type of data set: physicochemical. As to conditions: pH 6.8, aqueous buffer, thermodynamic from solid; read-out: solubility. The source says:
The physicochemical properties of relevance for the absorption of the compound, such as the solubility and the membrane permeability, especially at a pH close to neutral pH can be measured using the procedure as described by L. ZHOU et al. in JOURNAL OF PHARMACEUTICAL SCIENCES, VOL. 96, NO. 11, p. 3052-3071 (2007) for the solubility at pH 6.8 and the procedure as described by F. Wohnsland and B. Faller in Journal of Medicinal Chemistry Vol 44, p. 923-930 (2001) for the Parallel Artificial Membrane Permeability Assay (PAMPA) at pH 6.8.

The next data set addresses T1, PI3K alpha (Homo sapiens, UniProt P42336).
T1 construct: p85(iSH2) fusion partner (see partner chain) (N); His tag (C); made in house; host or cells: baculovirus; Tn5 (Trichoplusia ni) or TiniPro insect cells
The data set is described as follows: PI3K alpha kinase assay (Kinase-Glo luminescence). The data set is classed as biochemical. A digest of the protocol: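 Compounds are titrated at 8 concentrations and mixed with PI3Kα protein (EMV B1075, 10 nM) in phosphatidylinositol (10 μg/mL). ATP at 1 μM starts the 60-minute room-temperature reaction, which is stopped with Kinase-Glo before luminescence reading. Four-parameter curve fitting gives IC50.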
(In general: Kinase-Glo reads ATP consumption through a luciferase reaction.)

Another data set deals with T2, PI3K beta (Homo sapiens, UniProt P42338).
T2 construct: for the full-length p110-b subunit are generated and fused by overlapping PCR; p85(iSH2) fusion partner (see partner chain) (N); His tag (C); made in house; host or cells: baculovirus; Tn5 (Trichoplusia ni) or TiniPro insect cells
T2 sequence (P42338 with tags, fused parts or gaps limits assumed): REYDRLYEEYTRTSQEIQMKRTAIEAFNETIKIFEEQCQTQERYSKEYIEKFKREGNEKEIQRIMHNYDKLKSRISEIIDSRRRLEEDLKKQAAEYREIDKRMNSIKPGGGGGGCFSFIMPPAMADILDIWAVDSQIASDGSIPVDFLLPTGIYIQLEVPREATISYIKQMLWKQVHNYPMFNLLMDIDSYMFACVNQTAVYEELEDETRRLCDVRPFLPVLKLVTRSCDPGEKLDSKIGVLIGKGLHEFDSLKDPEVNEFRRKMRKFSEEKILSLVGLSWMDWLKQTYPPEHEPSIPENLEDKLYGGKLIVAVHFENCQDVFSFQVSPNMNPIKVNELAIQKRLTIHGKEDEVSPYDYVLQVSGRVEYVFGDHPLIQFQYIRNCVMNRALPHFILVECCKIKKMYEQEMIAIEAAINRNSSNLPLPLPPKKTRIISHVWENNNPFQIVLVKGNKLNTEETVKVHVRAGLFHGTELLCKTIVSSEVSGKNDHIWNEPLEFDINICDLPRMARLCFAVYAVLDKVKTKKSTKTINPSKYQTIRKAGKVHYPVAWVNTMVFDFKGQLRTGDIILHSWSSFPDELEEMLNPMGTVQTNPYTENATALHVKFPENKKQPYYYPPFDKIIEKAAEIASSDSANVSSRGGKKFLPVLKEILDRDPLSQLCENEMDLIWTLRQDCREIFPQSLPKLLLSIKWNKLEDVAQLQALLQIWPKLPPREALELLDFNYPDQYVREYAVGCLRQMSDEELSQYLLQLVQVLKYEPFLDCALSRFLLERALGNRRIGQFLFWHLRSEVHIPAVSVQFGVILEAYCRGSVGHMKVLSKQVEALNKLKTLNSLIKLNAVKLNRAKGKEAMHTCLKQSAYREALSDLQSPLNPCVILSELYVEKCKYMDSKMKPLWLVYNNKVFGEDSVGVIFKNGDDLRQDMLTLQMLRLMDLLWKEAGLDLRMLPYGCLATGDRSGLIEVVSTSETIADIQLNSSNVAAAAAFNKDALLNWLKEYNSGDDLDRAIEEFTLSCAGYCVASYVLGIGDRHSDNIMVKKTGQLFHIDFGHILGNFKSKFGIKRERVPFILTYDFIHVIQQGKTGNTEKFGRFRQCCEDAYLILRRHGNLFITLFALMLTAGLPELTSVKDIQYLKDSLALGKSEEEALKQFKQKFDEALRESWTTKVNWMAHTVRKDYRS
The data set is described as follows: PI3K beta kinase assay (Kinase-Glo luminescence). The data set is classed as biochemical. A digest of the protocol:
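Residual ATP after a 60 min room-temperature reaction is quantified by Kinase-Glo luminescence. Enzyme: 25 nM BV-949 (p85 iSH2–linker–full-length p110β); substrates 1 μM ATP, 10 μg/mL PI; buffer Tris pH 7.5, MgCl2, NaCl, CHAPS, DTT. Eight concentrations per compound, four-parameter logistic IC50.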

In another data set the target is T3, PI3K delta (Homo sapiens, UniProt O00329).
T3 construct: for the full-length p110-d subunit are generated and fused by overlapping PCR; p85(iSH2) fusion partner (see partner chain) (N); His tag (C); made in house; host or cells: baculovirus; Tn5 (Trichoplusia ni) or TiniPro insect cells
The data set is described as follows: PI3K delta kinase assay (Kinase-Glo luminescence). The data set is classed as biochemical. A digest of the protocol:
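ATP 1 μM, PI 10 μg/mL, PI3Kδ construct BV1060 10 nM (final); 10 mM Tris pH 7.5, 3 mM MgCl2, 50 mM NaCl, 0.05% CHAPS, 1 mM DTT; 60 min RT; Kinase-Glo stop, luminescence.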

The target of a further data set is T4, mTOR (Homo sapiens, UniProt P42345).
T4 construct: purchased Invitrogen Corporation (Carlsbad/CA, USA) PV4753
T4 sequence (P42345 1360-2549 limits assumed): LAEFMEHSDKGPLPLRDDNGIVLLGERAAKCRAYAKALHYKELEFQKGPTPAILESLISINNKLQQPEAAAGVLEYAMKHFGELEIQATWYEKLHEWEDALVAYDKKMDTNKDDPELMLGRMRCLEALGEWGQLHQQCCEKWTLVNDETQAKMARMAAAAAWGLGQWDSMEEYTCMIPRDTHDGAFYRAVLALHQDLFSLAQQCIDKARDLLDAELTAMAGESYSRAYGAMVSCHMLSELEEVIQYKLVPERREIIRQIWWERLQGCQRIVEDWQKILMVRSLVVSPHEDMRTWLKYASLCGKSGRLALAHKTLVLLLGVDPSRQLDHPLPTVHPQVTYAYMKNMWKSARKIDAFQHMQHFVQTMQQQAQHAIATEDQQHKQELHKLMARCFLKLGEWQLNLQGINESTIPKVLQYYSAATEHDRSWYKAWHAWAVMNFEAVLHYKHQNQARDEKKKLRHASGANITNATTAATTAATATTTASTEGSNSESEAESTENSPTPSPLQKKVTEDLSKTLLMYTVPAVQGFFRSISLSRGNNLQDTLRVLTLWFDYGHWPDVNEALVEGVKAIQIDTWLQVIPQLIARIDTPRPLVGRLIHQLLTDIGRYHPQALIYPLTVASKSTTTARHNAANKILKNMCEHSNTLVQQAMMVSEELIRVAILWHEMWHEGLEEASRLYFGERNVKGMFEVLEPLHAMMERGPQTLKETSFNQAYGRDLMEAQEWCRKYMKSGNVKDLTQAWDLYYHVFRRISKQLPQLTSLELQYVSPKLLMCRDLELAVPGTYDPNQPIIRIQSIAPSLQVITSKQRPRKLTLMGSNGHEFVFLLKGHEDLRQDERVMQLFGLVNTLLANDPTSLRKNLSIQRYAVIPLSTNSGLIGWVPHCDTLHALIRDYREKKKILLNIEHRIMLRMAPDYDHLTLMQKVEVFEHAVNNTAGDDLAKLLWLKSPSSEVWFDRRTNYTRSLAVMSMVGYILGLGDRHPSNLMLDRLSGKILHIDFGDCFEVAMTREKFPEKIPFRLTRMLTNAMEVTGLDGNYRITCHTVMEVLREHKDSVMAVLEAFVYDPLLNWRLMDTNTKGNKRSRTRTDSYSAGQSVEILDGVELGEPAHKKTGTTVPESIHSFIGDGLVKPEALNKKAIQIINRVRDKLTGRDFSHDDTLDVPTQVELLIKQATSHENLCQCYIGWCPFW
The data set is described as follows: Biochemical assay for m-TOR by TR-FRET. To be noted: 8 μM ATP, 400 nM GFP-4EBP1, 0.5 nM mTOR. A digest of the protocol:
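TR-FRET detection of pThr46 on GFP-4EBP1 (400 nM final) using Tb3+-labelled antibody (0.5 nM), added with EDTA to stop reactions. Reactions ran at rt with 0.5 nM mTOR and 8 μM ATP (final) in HEPES pH 7.5 buffer containing 10 mM MnCl2.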
(In general: TR-FRET usually uses a lanthanide donor and a delayed reading to cut background.)

The test system of data set [1] is PKB Ser473 phosphorylation in Rat1-myr-HA-p110 alpha cells. The data set can be described thus: Reverse protein array assay, PKB Ser473 phosphorylation in Rat1-myr-p110 alpha cells. The data set is classed as cell-based. To be noted: 0.5 h, pAkt Ser473, 30 minutes compound incubation, read-out: p-PKB IC50. A digest of the protocol:
(§1)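 Rat1 cells expressing myristoylated HA-tagged p110 alpha, beta or delta were plated for at least 20 h, then exposed to 8-step serial compound dilutions (0.2% DMSO final) for 30 min at 37 °C. Lysates were spotted at four dilutions on protein microarrays, and relative fluorescence intensity of phospho-Ser473 PKB was calculated.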

Data set [2] concerns PKB Ser473 phosphorylation in Rat1-myr-HA-p110 beta cells. The data set can be described thus: Reverse protein array assay, PKB Ser473 phosphorylation in Rat1-myr-p110 beta cells. Type of data set: cell-based. As to conditions: 0.5 h, pAkt Ser473, 30 minutes incubation, read-out: p-PKB IC50. Summed up:
as §1

Data set [3] deals with PKB Ser473 phosphorylation in Rat1-myr-HA-p110 delta cells. The data set is described as follows: Reverse protein array assay, PKB Ser473 phosphorylation in Rat1-myr-p110 delta cells. The data set is classed as cell-based. As to conditions: read-out: p-PKB IC50. Summed up: as §1
The target in the next data set is T5, PI3K gamma (Homo sapiens, UniProt P48736).
T5 construct: His tag (C); made in house; host or cells: baculovirus (pVL1393); Tn5 or TiniPro insect cells; construct from Roger Williams lab, MRC LMB
T5 sequence (P48736 144-1102 limits assumed): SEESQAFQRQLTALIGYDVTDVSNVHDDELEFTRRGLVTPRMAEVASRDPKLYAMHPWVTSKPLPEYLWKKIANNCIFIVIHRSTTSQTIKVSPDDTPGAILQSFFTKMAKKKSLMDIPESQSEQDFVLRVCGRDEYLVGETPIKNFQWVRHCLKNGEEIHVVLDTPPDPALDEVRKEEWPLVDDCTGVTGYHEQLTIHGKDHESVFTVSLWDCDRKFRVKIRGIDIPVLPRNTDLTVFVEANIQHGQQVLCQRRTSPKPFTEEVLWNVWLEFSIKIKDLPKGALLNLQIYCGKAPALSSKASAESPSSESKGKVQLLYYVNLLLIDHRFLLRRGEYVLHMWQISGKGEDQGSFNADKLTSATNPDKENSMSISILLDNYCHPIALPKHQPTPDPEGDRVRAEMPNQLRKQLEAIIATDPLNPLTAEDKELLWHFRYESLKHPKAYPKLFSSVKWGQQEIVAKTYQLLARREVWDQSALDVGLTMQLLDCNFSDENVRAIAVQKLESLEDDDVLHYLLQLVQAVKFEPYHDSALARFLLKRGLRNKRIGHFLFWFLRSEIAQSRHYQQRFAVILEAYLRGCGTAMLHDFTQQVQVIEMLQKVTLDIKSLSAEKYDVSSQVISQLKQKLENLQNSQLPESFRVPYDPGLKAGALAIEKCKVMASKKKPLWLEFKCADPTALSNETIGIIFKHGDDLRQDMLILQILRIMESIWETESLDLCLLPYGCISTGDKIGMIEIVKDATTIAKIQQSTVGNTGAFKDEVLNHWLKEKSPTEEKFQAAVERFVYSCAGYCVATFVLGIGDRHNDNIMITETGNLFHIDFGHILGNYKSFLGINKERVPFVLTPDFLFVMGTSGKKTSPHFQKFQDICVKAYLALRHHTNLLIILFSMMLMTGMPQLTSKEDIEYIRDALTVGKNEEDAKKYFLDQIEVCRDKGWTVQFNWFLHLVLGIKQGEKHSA
The data set is described as follows: PI3K gamma kinase assay (Kinase-Glo luminescence). The data set is classed as biochemical. The procedure: In a more preferred assay, the kinase reaction is performed in a final volume of 10 μL per well of a low volume non binding CORNING, 384 well black plate (Cat. No. #3676). The final concentrations of ATP and phosphatidyl inositol (PI) in the assay are 1 μM and 10 μg/mL respectively. The reaction is started by the addition of ATP.
The components of the assay are added per well as follows:
[…] in 90% DMSO per well, in columns 1-20, 8 concentrations (1/3 and 1/3.33 serial dilution step) in single. • Low control: […] of 90% DMSO in half the wells of columns 23-24 (0.45% in final). • High control: […] of reference compound (e.g. compound of Example 7 in WO 2006/122806) in the other half of columns 23-24 (2.5 μM in final). • Standard: […] of reference compound as just mentioned diluted as the test compounds in columns 21-22 • 20 mL ‘buffer’ are prepared per assay: • 200 μL of 1M TRIS HCl pH7.5 (10 mM in final) • 60 μL of 1M MgCl2 (3 mM in final) • 500 μL of 2M NaCl (50 mM in final) • 100 μL of 10% CHAPS (0.05% in final) • 200 μL of 100 mM DTT (1 mM in final) • 18.94 mL of nanopure water • 10 mL ‘PI’ are prepared per assay: • 200 μL of 1 mg/ml L-alpha-Phosphatidylinositol (Liver Bovine, Avanti Polar Lipids Cat. No. 840042C MW=909.12) prepared in 3% OctylGlucoside (10 μg/ml in final) • 9.8 mL of ‘buffer’ • 10 mL ‘ATP’ are prepared per assay: • 6.7 μL of 3 mM stock of ATP giving a final concentration of 1 μM per well • 10 mL of ‘buffer’ • 2.5 mL of each PI3K construct are prepared per assay in ‘PI’ with the following final concentration: • 10 nM PI3K alfa EMV B1075 • 25 nM beta EMV BV949 • 10 nM delta EMV BV1060 • 150 nM gamma EMV BV950 • 5 μL of ‘PI/PI3K’ are added per well. • 5 μl ‘ATP’ are added per well to start the reaction. • The plates are then incubated at room temperature for 60 minutes (alfa, beta, delta) or 120 minutes (gamma). • The reaction is terminated by the addition of 10 μL Kinase-Glo (Promega Cat. No. #6714). • The assay plates are read after 10 minutes in Synergy 2 reader (BioTek, Vermont USA) with an integration time of 100 milliseconds and sensitivity set to 191. • Output: The High control is around 60'000 counts and the Low control is 30'000 or lower • This luminescence assay gives a useful Z′ ratio between 0.4 and 0.7
IC50 is determined by a four parameter curve fitting routine that comes along with “excel fit”. […] Alternatively, IC50 values are calculated using idbsXLfit model 204, which is a 4 parameter logistic model.

T1 sequence (P42336 with tags, fused parts or gaps limits assumed): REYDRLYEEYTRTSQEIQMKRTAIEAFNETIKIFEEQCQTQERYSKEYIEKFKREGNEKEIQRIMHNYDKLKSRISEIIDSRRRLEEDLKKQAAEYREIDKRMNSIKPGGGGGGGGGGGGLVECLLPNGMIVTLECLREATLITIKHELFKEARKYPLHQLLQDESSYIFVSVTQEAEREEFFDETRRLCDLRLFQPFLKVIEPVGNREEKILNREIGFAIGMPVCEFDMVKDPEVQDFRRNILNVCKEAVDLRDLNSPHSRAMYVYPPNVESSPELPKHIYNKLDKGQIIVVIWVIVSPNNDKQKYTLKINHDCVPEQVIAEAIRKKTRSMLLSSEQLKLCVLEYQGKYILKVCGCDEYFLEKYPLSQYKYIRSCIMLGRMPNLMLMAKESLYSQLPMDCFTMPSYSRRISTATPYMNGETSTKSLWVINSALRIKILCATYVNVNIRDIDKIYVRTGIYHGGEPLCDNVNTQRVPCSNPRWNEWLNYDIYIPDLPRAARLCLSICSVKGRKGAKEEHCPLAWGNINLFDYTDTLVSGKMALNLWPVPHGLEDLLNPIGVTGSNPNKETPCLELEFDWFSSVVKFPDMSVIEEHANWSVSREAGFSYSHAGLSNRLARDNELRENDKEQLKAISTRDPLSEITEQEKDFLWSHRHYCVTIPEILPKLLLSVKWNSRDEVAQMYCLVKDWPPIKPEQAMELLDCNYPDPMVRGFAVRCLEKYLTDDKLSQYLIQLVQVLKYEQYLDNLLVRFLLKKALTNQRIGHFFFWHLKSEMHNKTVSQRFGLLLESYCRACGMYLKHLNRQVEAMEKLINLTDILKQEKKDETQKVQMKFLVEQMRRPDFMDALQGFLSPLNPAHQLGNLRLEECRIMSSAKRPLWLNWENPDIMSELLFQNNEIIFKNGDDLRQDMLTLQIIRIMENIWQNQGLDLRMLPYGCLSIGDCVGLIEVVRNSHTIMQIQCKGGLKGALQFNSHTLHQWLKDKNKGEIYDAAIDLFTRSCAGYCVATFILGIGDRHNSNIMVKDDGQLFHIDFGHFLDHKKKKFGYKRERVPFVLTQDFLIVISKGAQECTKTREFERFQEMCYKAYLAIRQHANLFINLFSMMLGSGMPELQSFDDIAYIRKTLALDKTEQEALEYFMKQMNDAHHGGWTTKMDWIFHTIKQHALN

For `CCn1cc(-n2c(=O)n(C)c3cnc4ccc(-c5cnc(COC)c(NC)c5)cc4c32)c(C)n1` [Example 160.2, 1-(1-Ethyl-3-Methyl-1H-pyrazol-4-yl)-8-(6-methoxymethyl-5-methylamino-pyridin-3-yl)-3-methyl-1,3-dihydro-imidazol[4,5-c]quinolin-2-one], the solubility in “Solubility at pH 6.8” came out at 237 µg/mL (≈ 518 µM). In addition, the IC50 at PI3K alpha is 39 nM; on PI3K beta, 130 nM; on PI3K delta, 16 nM; on mTOR it was 25 nM.

In the case of `CCOc1cc(-c2ccc3ncc4c(c3c2)n(-c2c(C)nn(CCOC)c2C)c(=O)n4C)cnc1C` [Example 85.2, 8-(5-Ethoxy-6-methyl-pyridin-3-yl)-1-[1-(2-methoxy-ethyl)-3,5-dimethyl-1H-pyrazol-4-yl]-3-methyl-1,3-dihydro-imidazo[4,5-c]quinolin-2-one], the solubility in the data set “Solubility at pH 6.8” was above 487 µg/mL. The concentration for half-maximal inhibition (IC50) on PI3K alpha was found to be 46 nM; at PI3K beta it was 139 nM; at PI3K delta, 57 nM; in [1] it was 187 nM; in data set [2], 516 nM; in data set [3] it was 224 nM.

For `Cc1nn(C)cc1-n1c(=O)n(C)c2cnc3ccc(-c4cncc(CNS(C)(=O)=O)c4)cc3c21` [Example 232], the solubility in the data set “Solubility at pH 6.8” came to 83 µg/mL (≈ 174 µM). Further, the IC50 at PI3K alpha was found to be 44 nM; at PI3K beta, 101 nM; on PI3K delta, 60 nM; at mTOR, 56 nM.

Take `CCOc1ccc(-c2ccc3ncc4c(c3c2)n(-c2cc(C(F)(F)F)nn2C)c(=O)n4C)cn1` [Example 3.2, 8-(6-Ethoxy-pyridin-3-yl)-3-methyl-1-(2-methyl-5-trifluoromethyl-2H-pyrazol-3-yl)-1,3-dihydro-imidazo[4,5-c]quinolin-2-one]: the half-inhibitory concentration (IC50) is 78 nM on PI3K alpha; 394 nM on PI3K delta; 559 nM on PI3K gamma; 120 nM in data set [1]; 138 nM in [2]; 473 nM in data set [3].

Turning to `CCOc1ccc(-c2ccc3ncc4c(c3c2)n(-c2c(C)nn(CCOC)c2C)c(=O)n4C)cn1` [Example 3.11, 8-(6-Ethoxy-pyridin-3-yl)-1-[1-(2-methoxy-ethyl)-3,5-dimethyl-1H-pyrazol-4-yl]-3-methyl-1,3-dihydro-imidazo[4,5-c]quinolin-2-one], the solubility in “Solubility at pH 6.8” was above 473 µg/mL. Further, the 50% inhibitory concentration (IC50) was 207 nM at PI3K alpha; 473 nM on PI3K beta; 228 nM on PI3K delta; 237 nM in data set [1]; 510 nM in data set [2]; 772 nM in data set [3].

As for `Cc1nn(C)cc1-n1c(=O)n(C)c2cnc3ccc(-c4cncc(N)c4)cc3c21` [Example 45], on PI3K gamma, the IC50 was 283 nM.

As for `COc1ccc(-c2ccc3ncc4c(c3c2)n(-c2cn(CC(=O)O)nc2C)c(=O)n4C)cn1` [Example 101, {4-[8-(6-Methoxy-pyridin-3-yl)-3-methyl-2-oxo-2,3-dihydro-imidazo[4,5-c]quinolin-1-yl]-3-methyl-pyrazol-1-yl}-acetic acid], the half-maximal inhibitory concentration (IC50) is 5 nM on PI3K alpha; 23 nM at PI3K beta; 15 nM on PI3K delta; 138 nM at PI3K gamma; below 3 nM at mTOR.

With `Cc1nn(C)cc1-n1c(=O)n(C)c2cnc3ccc(-c4ccc(OCCOCc5ccccc5)nc4)cc3c21` [Example 19, 8-[6-(2-Benzyloxy-ethoxy)-pyridin-3-yl]-1-(1,3-dimethyl-1H-pyrazol-4-yl)-3-methyl-1,3-dihydro-imidazo[4,5-c]quinolin-2-one], the half-inhibitory concentration (IC50) on PI3K alpha is 482 nM; on PI3K delta, 468 nM; at PI3K gamma it was 971 nM.

With `Cc1nn(C)cc1-n1c(=O)n(C)c2cnc3ccc(-c4cncc(CN)c4)cc3c21` [Example 230, 8-(5-Aminomethyl-pyridin-3-yl)-1-(1,3-dimethyl-1H-pyrazol-4-yl)-3-methyl-1,3-dihydro-imidazo[4,5-c]quinolin-2-one], the solubility in the data set “Solubility at pH 6.8” is above 399 µg/mL. Further, the half-inhibitory concentration (IC50) at PI3K alpha is 100 nM; on PI3K beta, 344 nM; at PI3K delta it was 437 nM; at mTOR it was 465 nM.

As to `COCCn1nc(C)c(-n2c(=O)n(C)c3cnc4ccc(-c5cncc(NC(C)C)c5)cc4c32)c1C` [Example 177.2, 8-(5-Isopropylamino-pyridin-3-yl)-1-[1-(2-methoxy-ethyl)-3,5-dimethyl-1H-pyrazol-4-yl]-3-methyl-1,3-dihydro-imidazo[4,5-c]quinolin-2-one], the solubility in “Solubility at pH 6.8” was 479 µg/mL (≈ 986 µM). Further, the IC50 at PI3K alpha came to 70 nM; on PI3K beta, 327 nM; at PI3K delta, 70 nM; in data set [1] it was 124 nM; in data set [2], 494 nM; in data set [3], 559 nM.
